Here are results for seven compounds from PubChem BioAssay (NCI).

Some test systems named below: NCI/ADR-RES ovarian; SF-295 CNS; HCC-2998 colon; NCI-H23 lung; A549 NSCLC; SNB-19 CNS; HT29 colon; OVCAR-8 ovarian; TK-10 renal; SN12C renal; SK-MEL-5 melanoma; M14 melanoma; OVCAR-5 ovarian; NCI-H226 lung; SK-MEL-2 melanoma; CCRF-CEM leukemia.
Assay in all cases: growth of human tumour cells (NCI), 48 h

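48-hour exposure; five concentrations; linearly interpolated endpoints. Abbreviation: GI50, concentration required for 50% inhibition of growth. Definition used: TGI = concentration required for complete inhibition of growth.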

As to `S=C1N(/N=C/c2c3ccccc3cc3ccccc23)C(=Nc2ccccc2)C(=Nc2ccccc2)N1c1ccccc1`, the TGI in the assay with NCI/ADR-RES ovarian, in the assay with SF-295 CNS, in the assay on HCC-2998 colon, in the assay with NCI-H23 lung, in the assay with A549 NSCLC and in the assay with SNB-19 CNS was above 100 µM in each case. Besides, the TGI in the assay on HT29 colon, with OVCAR-8 ovarian, with TK-10 renal, with SN12C renal, in the assay with SK-MEL-5 melanoma and in the assay on M14 melanoma was above 100 µM in each case. In addition, the TGI in the assay with OVCAR-5 ovarian, with NCI-H226 lung and in the assay on SK-MEL-2 melanoma was above 100 µM in each case.

For `CCCCCCCCCCCCCCCCOCC(CC(F)(F)P(=O)(OCC)OCC)OC(C)=O` (stereo unspecified), the TGI in the assay with NCI/ADR-RES ovarian turned out to be 32.4 µM; with SF-295 CNS, 24.4 µM; in the assay with HCC-2998 colon it was 22.6 µM; with NCI-H23 lung it was 34.6 µM; in the assay on A549 NSCLC, 24.7 µM; with SNB-19 CNS, 15.8 µM. The TGI came to 35.5 µM with HT29 colon; 27.3 µM in the assay with TK-10 renal; 44.5 µM with SN12C renal; 36.2 µM in the assay with SK-MEL-5 melanoma; 31.9 µM with M14 melanoma; 34.7 µM in the assay on OVCAR-5 ovarian. The results for the TGI in the assay with NCI-H226 lung and in the assay with SK-MEL-2 melanoma were 28.7 µM and 35.9 µM, respectively.

Turning to `CN1CNc2nc(N)n(C)c(=O)c2C1`, the TGI in the assay on NCI/ADR-RES ovarian, in the assay on CCRF-CEM leukemia, in the assay with SF-295 CNS, in the assay with HCC-2998 colon, with NCI-H23 lung and with A549 NSCLC was above 10 µM in each case. Moreover, the TGI in the assay on SNB-19 CNS, in the assay with HT29 colon, in the assay on OVCAR-8 ovarian, in the assay with TK-10 renal, in the assay on SN12C renal and with M14 melanoma was above 10 µM each time. Besides, the TGI in the assay on OVCAR-5 ovarian, in the assay with NCI-H226 lung and with SK-MEL-2 melanoma was above 10 µM in each case.

As for `CC(=O)O[C@H]1[C@@H]2OC(=O)[C@@](O)(CC3CCCO3)[C@@H]2CC(=O)[C@](C)(O)CC/C=C(\C)CCC[C@@H]1C` (stereo partly specified), the TGI in the assay with NCI/ADR-RES ovarian is above 100 µM; in the assay on CCRF-CEM leukemia it was 68.4 µM; in the assay with SF-295 CNS, above 100 µM; in the assay with HCC-2998 colon, above 100 µM; with A549 NSCLC it was above 100 µM; in the assay on SNB-19 CNS, above 100 µM. Besides, the TGI in the assay on OVCAR-8 ovarian, with TK-10 renal, with SN12C renal, in the assay on SK-MEL-5 melanoma, in the assay on M14 melanoma and with OVCAR-5 ovarian was above 100 µM throughout. For the same compound, the TGI with NCI-H226 lung is 32.5 µM; with SK-MEL-2 melanoma it was above 100 µM.

For the compound `Cc1ccc(NC2=CC(=O)C(NO)c3ccccc32)cc1` (stereo unspecified), the TGI with NCI/ADR-RES ovarian was found to be 5.81 µM; in the assay on SF-295 CNS it was 15.4 µM; with HCC-2998 colon it was 25.8 µM; in the assay with NCI-H23 lung it was 4.22 µM; in the assay on A549 NSCLC, 10.6 µM; in the assay on SNB-19 CNS, 11.5 µM. Also, the TGI in the assay on HT29 colon turned out to be 17.1 µM; in the assay with OVCAR-8 ovarian it was 4.41 µM; in the assay with TK-10 renal it was 62.7 µM; in the assay with SN12C renal, 10.5 µM; with SK-MEL-5 melanoma, 2.92 µM; in the assay on M14 melanoma it was 11.4 µM. The TGI in the assay on OVCAR-5 ovarian stood at 25 µM; in the assay with NCI-H226 lung, 49.3 µM; with SK-MEL-2 melanoma, 8.99 µM.

In the case of `COc1cccc([C@H]2C/C(=N\NC(=O)C(=O)N[C@@H](C)c3ccccc3)c3ccccc3N2)c1`, the GI50 with NCI/ADR-RES ovarian is below 0.01 µM; with A549 NSCLC, 0.0366 µM; in the assay with SNB-19 CNS, 0.0259 µM; in the assay with OVCAR-8 ovarian it was 0.0285 µM. The TGI in the assay with NCI/ADR-RES ovarian was 0.0535 µM; in the assay with CCRF-CEM leukemia, 3.09 µM; in the assay on SF-295 CNS, above 100 µM; in the assay on HCC-2998 colon it was 0.0495 µM; in the assay with A549 NSCLC, above 100 µM; in the assay with SNB-19 CNS, above 100 µM. For the same compound, the TGI is 1.05 µM in the assay with OVCAR-8 ovarian; above 100 µM in the assay on TK-10 renal; 0.0898 µM in the assay on SN12C renal; 0.868 µM in the assay on SK-MEL-5 melanoma; above 100 µM in the assay with M14 melanoma; above 100 µM with OVCAR-5 ovarian. The TGI in the assay on NCI-H226 lung is 3.03 µM; in the assay with SK-MEL-2 melanoma, above 100 µM.

As for `CCn1c(SCC(=O)NNC(=S)Nc2ccc([N+](=O)[O-])cc2)nc2ccccc2c1=O`, the TGI in the assay with NCI/ADR-RES ovarian, with CCRF-CEM leukemia, in the assay on SF-295 CNS, in the assay with HCC-2998 colon, with NCI-H23 lung and in the assay with A549 NSCLC was above 100 µM each time. Besides, the TGI in the assay with SNB-19 CNS, in the assay with OVCAR-8 ovarian, in the assay on TK-10 renal, in the assay on SN12C renal, with SK-MEL-5 melanoma and in the assay on M14 melanoma was above 100 µM each time. Also, the TGI in the assay on OVCAR-5 ovarian, in the assay on NCI-H226 lung and with SK-MEL-2 melanoma was above 100 µM each time.
